What was measured:
[1] = system: calf thymus (CT) DNA; experiment: Thermal denaturation studies with duplex-form calf thymus DNA; assay type: binding; details: for ΔTm (° C.) after incubation at 37° C. for 0 h / ΔTm (° C.) after incubation at 37° C. for 18 h / ΔTm (° C.) after incubation at 37° C. for 36 h: [ANCD]/[DNA] molar ratio 1:5, CT-DNA 100 μM, ligand 20 μM, sodium phosphate buffer pH 7.00; for ΔTm (° C.) after incubation at 37° C. for 0 h: 0 h at 37° C.; for ΔTm (° C.) after incubation at 37° C. for 18 h: 18 h at 37° C.; for ΔTm (° C.) after incubation at 37° C. for 36 h: 36 h at 37° C.; for Course of ΔTm over incubation at 0 hr, 18 hr and 36 hr: incubation at 37° C., [ANCD]/[DNA] 1:5
Protocol: Compounds were subjected to thermal denaturation studies with duplex-form calf thymus DNA (CT-DNA) using an adaptation of a reported procedure. Working solutions in aqueous buffer (10 mM NaH2PO4/Na2HPO4, 1 mM Na2EDTA, pH 7.00+/−0.01) containing CT-DNA (100 μM in phosphate) and the PBD (20 μM) were prepared by addition of concentrated ANCD solutions in DMSO to obtain a fixed [ANCD]/[DNA] molar ratio of 1:5. The DNA-ANCD solutions were incubated at 37° C. for 0, 18, and 36 h prior to analysis. Samples were monitored at 260 nm using a Beckman DU-7400 spectrophotometer fitted with high performance temperature controller, and heating was applied at 1° C. min^−1 in the 40-90° C. range. DNA helix coil transition temperatures (Tm) were obtained from the maxima in the (dA260)/dT derivative plots. Results are given as the mean+/−standard deviation from three determinations and are corrected for the effects of DMSO co-solvent using a linear correction term. Drug-induced alterations in DNA melting behaviour are given by: ΔTm=Tm (DNA+ANCD)−Tm (DNA alone), where the Tm value for the ANCD-free CT-DNA is 69.0+/−0.01.

[2] = system: Prostate cancer cell lines; experiment: In vitro cytotoxicity, prostate panel; assay type: cell-based; details: Homo sapiens, average of six to nine different cancer cell lines, 48 h, SRB, read-out: Log GI50 (concentration in mol/L causing 50% growth inhibition) (converted)
Protocol: (§1) In vitro evaluation of cytotoxic activity: Compounds were evaluated for in vitro anticancer activity against sixty human tumour cells derived from nine cancer types (colon, prostate, oral, lung, cervix and breast cancer) as shown in (Table 1, 2 and 3) 8b, 8c, 8d, and 8e, were evaluated for in vitro anticancer activity against sixty human tumour cells derived from nine cancer types (leukemia, non-small-cell lung, colon, CNS, melanoma, ovarian, prostate, and breast cancer) as shown in (Table 2 and 3). For the compound, dose response curves for each cell line were measured at a minimum of five concentrations at 10 fold dilutions. A protocol of 48 h continuous drug exposure was used and a sulforhodamine B (SRB) protein assay was used to estimate cell viability or growth. The concentration causing 50% cell growth inhibition (GI50), total cell growth inhibition (TGI 0% growth) and 50% cell death (LC50, −50% growth) compared with the control was calculated. The mean graph midpoint values of log10 TGI and log10 LC50 as well as log10 GI50 for 8a, 8b, 8c, 8d, and 8e, are listed in (Table 2 and 3).
(§2) Each cancer type represents the average of six to nine different cancer cell lines. The compounds 8a, 8b, 8c, 8d, 8e and 8f were evaluated for in vitro anticancer activity against sixty human tumour cells derived from nine cancer types (leukemia, colon, prostate, renal melanoma CNS, lung, cervix and breast cancer) as shown in Table 3. Compounds 8b, 8c, 8d and 8e show promising cytotoxicity against some cancer cell lines (Table 2). Compounds 8b, 8c, 8d and 8e have been evaluated for their in vitro cytotoxicity in selected human cancer cell lines of colon (Colo205), lung (Hop-62), cervix (SiHa), prostate (DU145, PC3), oral (DWD, HT1080), and breast (MCF7, Zr-75-1) origin. A protocol of 48 h continuous drug exposure has been used and an […] has been used to estimate cell viability or growth. The results are expressed as percent of cell growth determined relative to that of untreated control cells. […] In the breast cancer panel, the growth of BT-549, MCF-7 cell lines are 10.3, and 17.6. In the prostate cancer panel, the growth of DU-145, PC-3 cell lines are 11.3, and 19.2. The GI50 values of compound In the CNS cancer panel, the growth of SF-539, SNB-75 cell lines are […]. […] In vitro cytotoxicity of compounds 8a, and 8b in selected cancer cell lines has been illustrated in Table 3. The average GI50 values for each cancer panel of compounds 8b, 8c, 8d and 8e have been illustrated in above Table 2 and 3

[3] = system: CNS cancer cell lines; experiment: In vitro cytotoxicity, CNS panel; assay type: cell-based; details: Homo sapiens, average of six to nine different cancer cell lines, 48 h, SRB, read-out: Log GI50 (concentration in mol/L causing 50% growth inhibition) (converted)
Protocol: as §1, §2

[4] = system: Ovarian cancer cell lines; experiment: In vitro cytotoxicity, ovarian panel; assay type: cell-based; details: Homo sapiens, average of six to nine different cancer cell lines, 48 h, SRB, read-out: Log GI50 (concentration in mol/L causing 50% growth inhibition) (converted)
Protocol: as §1, §2

[5] = system: human tumour cell lines; experiment: In vitro anticancer activity against sixty human tumour cell lines (NCI, SRB assay); assay type: cell-based
Protocol: as §1, §2

[6] = system: Breast cancer cell lines; experiment: In vitro cytotoxicity, breast panel; assay type: cell-based; details: Homo sapiens, average of six to nine different cancer cell lines, 48 h, SRB, read-out: Log GI50 (concentration in mol/L causing 50% growth inhibition) (converted)
Protocol: as §1, §2

[7] = system: Nonsmall-cell-lung cancer cell lines; experiment: In vitro cytotoxicity, non-small-cell lung panel; assay type: cell-based; details: Homo sapiens, average of six to nine different cancer cell lines, 48 h, SRB, read-out: Log GI50 (concentration in mol/L causing 50% growth inhibition) (converted)
Protocol: as §1, §2

[8] = system: Leukemia cancer cell lines; experiment: In vitro cytotoxicity, leukemia panel; assay type: cell-based; details: Homo sapiens, average of six to nine different cancer cell lines, 48 h, SRB, read-out: Log GI50 (concentration in mol/L causing 50% growth inhibition) (converted)
Protocol: as §1, §2

[9] = system: Renal cancer cell lines; experiment: In vitro cytotoxicity, renal panel; assay type: cell-based; details: Homo sapiens, average of six to nine different cancer cell lines, 48 h, SRB, read-out: Log GI50 (concentration in mol/L causing 50% growth inhibition) (converted)
Protocol: as §1, §2

[10] = system: Colon cancer cell lines; experiment: In vitro cytotoxicity, colon panel; assay type: cell-based; details: Homo sapiens, average of six to nine different cancer cell lines, 48 h, SRB, read-out: Log GI50 (concentration in mol/L causing 50% growth inhibition) (converted)
Protocol: as §1, §2

[11] = system: Melanoma cancer cell lines; experiment: In vitro cytotoxicity, melanoma panel; assay type: cell-based; details: Homo sapiens, average of six to nine different cancer cell lines, 48 h, SRB, read-out: Log GI50 (concentration in mol/L causing 50% growth inhibition) (converted)
Protocol: as §1, §2

SMILES	ΔTm (° C.) after incubation at 37° C. for 0 h [1]	ΔTm (° C.) after incubation at 37° C. for 18 h [1]	ΔTm (° C.) after incubation at 37° C. for 36 h [1]	Course of ΔTm over incubation at 0 hr, 18 hr and 36 hr [1]	GI50 [2]	GI50 [3]	GI50 [4]	Log10LC50 mean graph midpoint (MG_MID) ([5]; 50% cell death, 48 h continuous drug exposure, SRB assay)	Log10GI50 mean graph midpoint (MG_MID) ([5]; 50% cell growth inhibition, 48 h continuous drug exposure, SRB assay)	GI50 ([5]; Homo sapiens, sixty cell lines in nine cell panels)	antiproliferative activity ([5]; against most of the tested cell lines)	Log10TGI50 mean graph midpoint (MG_MID) ([5]; total cell growth inhibition, 48 h continuous drug exposure, SRB assay)	GI50 [6]	GI50 [7]	GI50 [8]	GI50 [9]	GI50 [10]	GI50 [11]
COc1cc(C(=O)N2CCN(c3ccccc3OC)CC2)c(N)cc1OCCCN1CCN(c2ccccc2OC)CC1 [Compound 11, (2-amino-5-methoxy-4-3-[4-(2-methoxyphenyl)piperazino]propoxyphenyl)[4-(2-methoxyphenyl)piperazino]methanone]	1.4 °C	2.1 °C	2.1 °C	gradually increased														
COc1cc(C(=O)Nc2ccc(S(=O)(=O)c3ccc(NC(=O)c4cc(OC)c(OCc5ccccc5)cc4N)cc3)cc2)c(N)cc1OCc1ccccc1 [Compound 8h, N1-4-[(4-[2-amino-4-(benzyloxy)-5-methoxybenzoyl]aminophenyl)sulfonyl]phenyl-2-amino-4-(benzyloxy)-5-methoxybenzamide]	1.5 °C	2.3 °C	2.4 °C	gradually increased														
COc1cc2c(cc1O)N=CC1CCCN1C2=O (stereo not shown) [DC-81, reference compound]	0.3 °C	0.7 °C																
COc1cc(C(=O)N2CCN(c3ccccc3OC)CC2)c(N)cc1OCc1ccccc1 [Compound 8a, [2-amino-4-(benzyloxy)-5-methoxyphenyl][4-(2-methoxyphenyl)piperazino]methanone]	1.2 °C	1.7 °C	2.2 °C	gradually increased	6.61 µM	5.89 µM	5.75 µM	−4.19	−5.47	< 20 µM	nanomolar to low micromolar concentrations	−5.24	3.39 µM	3.63 µM	5.5 µM	5.62 µM	8.51 µM	4.47 µM

Reference: patent US8309726B2, “Substituted piperazine compounds of formula 8” (Council of Scientific & Industrial Research, priority 2007, dated 2012)
